Results: patent publication US5750550A, “2-(pyrazol-5-yl-oxymethyl)-1,2-benzisothiazol-3 (2H)-One 1, 1-dioxides and compositions and method of use thereof” (Sanofi, priority 1995, dated 1998)

Molecular target: T1, human leukocyte elastase (Homo sapiens, UniProt P08246)
T1 sequence (P08246 30-267): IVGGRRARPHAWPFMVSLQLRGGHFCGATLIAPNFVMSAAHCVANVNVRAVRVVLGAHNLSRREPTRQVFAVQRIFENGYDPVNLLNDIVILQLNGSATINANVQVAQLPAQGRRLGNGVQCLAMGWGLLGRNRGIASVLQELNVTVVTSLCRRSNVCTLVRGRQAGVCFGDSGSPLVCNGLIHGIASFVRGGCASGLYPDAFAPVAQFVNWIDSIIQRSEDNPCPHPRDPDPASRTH
Test: human leukocyte elastase (HLE) inhibitory activity, substrate MeOSuc-Ala-Ala-Pro-Val-pNA
Format: biochemical
Conditions: pH 7.8, 25° C., steady-state velocities
Method: The test compound (inhibitor) is dissolved in DMSO in a vial to produce an inhibitor stock solution which has a concentration in the range of 200-1000 μM. The inhibitor stock solution is diluted (1:4, 1:16 and 1:64) into assay vials (vials 1, 2 and 3 respectively) containing 2.4 mL of buffer solution (50 mM N-[2-hydroxyethyl] piperazine-N'-[2-ethanesulfonic acid]/NaOH, 500 mM NaCl, pH 7.8 at 25° C.) and DMSO is added so that the total volume in each vial is 3.2 mL. 70 μL, 50 μL, 35 μL and 25 μL of inhibitor from assay vial 1 is placed into the first four wells of a 96-well microtiter plate and each well is made up to 90 μL total volume with the addition of a 25% DMSO/buffer solution. The inhibitor from assay vials 2 and 3 is processed in a similar manner and placed in wells 5-12 respectively to afford a total of 12 different inhibitor concentrations. Four wells (wells 13-16) containing 90 μL of the 25% DMSO/buffer solution but no inhibitor are also run simultaneously with the inhibited wells as a control. 150 μL of substrate solution (prepared by the addition of 500 μL of the human leukocyte elastase (HLE) substrate MeOSuc-Ala-Ala-Pro-Val-pNA (18.7 mM in DMSO) to 19.5 mL of buffer solution) is then added simultaneously into each of the 16 wells and the solution in each well was thoroughly mixed.
The 96-well microtiter plate is placed into a Microplate Reader #89815A spectrophotometer and 110 μL of the enzyme solution (prepared as follows: a mixture of 20 mL of buffer solution and 20 mg of bovine serum albumen is gently vortexed in a scintillation vial and 5 μL HLE stock solution (1 mg/mL dissolved in deionized water) is added) is added simultaneously to each of the 16 wells. Each of the solutions in the wells is throughly mixed and then the time-dependent absorbance data is collected at an absorbance of 410 nm until the assay is complete. It should be noted that although this assay method can be done manually, it is preferred to perform the assay robotically using a Hewlett Packard MicroAssay System Robot. the absorbance versus time data thus obtained affords curves the final slope of which is equal to the final steady-statevelocities (VF). Using the program ENZFITTER (Elsevier software), the progress curves for the four control assays ([I]=0 are fit by linear regression to yield the enzyme reaction velocity values in the absences of inhibitor (Vo) which are averaged to produce a single fixed value. The inhibition constant Ki (nM) is then obtained from a plot of [formula] which affords a linear plot wherein: [formula] and [S] is the concentration of the substrate and Km is the Michaelis constant.
Table I summarizes the results obtained from the testing of compounds of the invention for human leukocyte elastase inhibitory activity.

Structure (SMILES)	Ki [nM]
COc1cc(C(C)C)c2c(c1)S(=O)(=O)N(COc1c(Cl)c(C(F)(F)F)nn1-c1ccccc1)C2=O [16 (b), 4-isopropyl-6-methoxy-2-(1-phenyl-3-trifluoromethyl-4-chloropyrazol-5-yl-oxymethyl)-1,2-benzisothiazol-3(2H)-one 1,1-dioxide]	1.6
CCN(CC)Cc1ccc(COc2cc(C(C)C)c3c(c2)S(=O)(=O)N(COc2cc(C(F)(F)F)nn2-c2ccccc2)C3=O)o1 [29 (b)]	0.082
COc1cc(C(C)C)c2c(c1)S(=O)(=O)N(COc1cc(C(F)(F)F)nn1-c1cccnc1)C2=O [20 (c), 4-isopropyl-6-methoxy-2-[1-(3-lpyridyl)-3-(trifluoromethyl)pyrazol-5-yl-oxymethyl]-1,2-benzisothiazol-3(2H)-one 1,1-dioxide]	0.037
COc1cc(C(C)C)c2c(c1)S(=O)(=O)N(COc1cc(C(=O)NCCN3CCCC3)nn1-c1ccccc1)C2=O [23 (b), 4-isopropyl-6-methoxy-2-[1-phenyl-3-(C(O)NH(CH2)2-1-pyrrolidinyl)pyrazol-5-yl-oxymethyl]-1,2-benzisothiazol-3(2H)-one 1,1-dioxide]	0.065
COc1ccc(-n2nc(C(F)(F)F)cc2OCN2C(=O)c3c(C(C)C)cc(OC)cc3S2(=O)=O)cc1 [15 (b), 4-isopropyl-6-methoxy-2-[1-(4-methoxyphenyl)-3-trifluoromethylpyrazol-5-yl-oxymethyl)-1,2-benzisothiazol-3(2H)-one 1,1-dioxide]	0.13
COc1cc(C(C)C)c2c(c1)S(=O)(=O)N(COc1cc(C(F)(F)F)nn1-c1ccccc1Cl)C2=O [30 (b), 4-isopropyl-6-methoxy-2-[1-(2-chlorophenyl)-3-trifluoromethylpyrazol-5-yl-oxymethyl]-1,2-benzisothiazol-3(2H)-one 1,1-dioxide]	0.07
CCN(CC)CCN(C)C(=O)c1cc(OCN2C(=O)c3c(C(C)C)cc(OC)cc3S2(=O)=O)n(-c2ccccc2)n1 [31 (b)]	0.143
CC(C)c1cc(O)cc2c1C(=O)N(COc1cc(C(F)(F)F)nn1-c1ccc(Cl)cc1)S2(=O)=O [39 (a), 4-isopropyl-6-hydroxy-2-[1-(4-chlorophenyl)-3-trifluoromethylpyrazol-5-yl-oxymethyl]-1,2-benzisothiazol-3(2H)-one 1,1-dioxide]	1.9
CC(C)c1cc(OCCCCCC(=O)O)cc2c1C(=O)N(COc1cc(C(F)(F)F)nn1-c1ccccc1)S2(=O)=O [37 (f), 4-isopropyl-6-[5-(carboxy)-enthyloxy]-2-(1-phenyl-3-trifluoromethylpyrazol-5-yl-oxymethyl)-1,2-benzisothiazol-3(2H)-one 1,1-dioxide]	0.081
COc1cc(C(C)C)c2c(c1)S(=O)(=O)N(COc1cc(C(F)(F)F)nn1-c1ncccc1C)C2=O [45 (b), 4-isopropyl-6-methoxy-2-[1-(3-methyl-2-pyridyl)-3-trifluoromethylpyrazol-5-yl-oxymethyl]-1,2-benzisothiazol-3(2H)-one 1,1-dioxide]	0.061
COc1cc(C(C)C)c2c(c1)S(=O)(=O)N(COc1cc(C(F)(F)F)nn1-c1cccc(C(F)(F)F)n1)C2=O [36 (b), 4-isopropyl-6-methoxy-2-[1-(6-trifluoromethyl-2-pyridyl)-3-trifluoromethylpyrazol-5-yl-oxymethyl]-1,2-benzisothiazol-3(2H)-one 1,1-dioxide]	0.029
COc1cc(C(C)C)c2c(c1)S(=O)(=O)N(COc1cc(C(F)(F)F)nn1-c1ccc3ccccc3n1)C2=O [27 (b), 4-isopropyl-6-methoxy-2-[1-(2-quinolinyl)-3-(trifluoromethyl)pyrazol-5-yl-oxymethyl]-1,2-benzisothiazol-3(2H)-one 1,1-dioxide]	0.15
COc1cc(C(C)C)c2c(c1)S(=O)(=O)N(COc1cc(-c3c(F)c(F)c(F)c(F)c3F)nn1-c1ccccc1)C2=O [19 (c)]	0.82
COc1cc(C(C)C)c2c(c1)S(=O)(=O)N(COc1cc(C(F)(F)F)nn1-c1ccncc1)C2=O [22 (b), 4-isopropyl-6-methoxy-2-[1-(4-pyridyl)-3-trifluoromethylpyrazol-5-yl-oxymethyl]-1,2-benzisothiazol-3(2H)-one 1,1-dioxide]	0.18
COc1cc(C(C)C)c2c(c1)S(=O)(=O)N(COc1cc(-c3ccccc3)nn1-c1ccccc1)C2=O [5 (b), 4-isopropyl-6-methoxy-2-(1,3-diphenylpyrazol-5-yl-oxymethyl)-1,2-benzisothiazol-3(2H)-one 1,1-dioxide]	0.92
CC(C)c1cc(OCCCC(=O)O)cc2c1C(=O)N(COc1cc(C(F)(F)F)nn1-c1ccccc1)S2(=O)=O [17 (b), 4-isopropyl-6-[3-(carboxy)propoxy]-2-(1-phenyl-3-trifluoromethylpyrazol-5-yl-oxymethyl)-1,2-benzisothiazol-3(2H)-one 1,1-dioxide]	0.036
COc1cc(C(C)C)c2c(c1)S(=O)(=O)N(COc1cc(Cl)nn1-c1ccccc1)C2=O [24 (c), 4-isopropyl-6-methoxy-2-(1-phenyl-3-chloropyrazol-5-yl-oxymethyl)-1,2-benzisothiazol-3(2H)-one 1,1-dioxide]	0.026

Second part, the molecule after the results:

Ki [nM]	Structure (SMILES)
0.066	COc1cc(C(C)C)c2c(c1)S(=O)(=O)N(COc1cc(Br)nn1-c1ccccc1)C2=O [52 (b), 4-isopropyl-6-methoxy-2-[1-phenyl-3-bromopyrazol-5-yl-oxymethyl]-1,2-benzisothiazol-3(2H)-one 1,1-dioxide]
0.077	CCOC(=O)c1cc(OCN2C(=O)c3c(C(C)C)cc(OC)cc3S2(=O)=O)n(-c2ccccc2)n1 [Example 12, 4-isopropyl-6-methoxy-2-(1-phenyl-3-ethoxycarbonylpyrazol-5-yl-oxymethyl)-1,2-benzisothiazol-3(2H)-one 1,1-dioxide]
0.78	CC(C)c1cc(O)cc2c1C(=O)N(COc1cc(C(F)(F)F)nn1-c1ccccc1)S2(=O)=O [Example 9, 4-iso-ropyl-6-hydroxy-2-(1-phenyl-3-trifluoromethylpyrazol-5-yl-oxymethyl)-1,2-benzisothiazol-3(2H)-one 1,1-dioxide]
0.076	COc1cc(C(C)C)c2c(c1)S(=O)(=O)N(COc1cc(C)nn1-c1ccc([N+](=O)[O-])cc1)C2=O [Example 7, 4-isopropyl-6-methoxy-2-[1-(p-nitrophenyl)-3-methylpyrazol-5-yl-oxymethyl]-1,2-benzisothiazol-3(2H)-one 1,1-dioxide]
39	COc1cc(C(C)C)c2c(c1)S(=O)(=O)N(COc1cc(C(F)(F)F)nn1Cc1ccccc1)C2=O [Example 48, 4-isopropyl-6-methoxy-2-[1-benzyl-3-trifluoromethylpyrazol-5-yl-oxymethyl]-1,2-benzisothiazol-3(2H)-one 1,1-dioxide]
0.1	COc1cc(C(C)C)c2c(c1)S(=O)(=O)N(COc1cc(C(F)(F)F)nn1C)C2=O [Example 25, 4-isopropyl-6-methoxy-2-(1-methyl-3-trifluoromethylpyrazol-5-yl-oxymethyl)-1,2-benzisothiazol-3(2H)-one 1,1-dioxide]
0.014	COc1cc(C(C)C)c2c(c1)S(=O)(=O)N(COc1cc(C#N)nn1-c1ccccc1)C2=O [Example 35, 4-isopropyl-6-methoxy-2-(1-phenyl-3-cyanopyrazol-5-yl-oxymethyl)-1,2-benziso thiazol-3(2H)-one 1,1-dioxide]
0.19	COc1cc(C(C)C)c2c(c1)S(=O)(=O)N(COc1cc(C#N)nn1-c1ccc(Cl)cc1)C2=O [Example 46, 4-isopropyl-6-methoxy-2-[1-(4-chlorophenyl)-3-cyanopyrazol-5-yl-oxymethyl]-1,2-benzisothiazol-3(2H)-one 1,1-dioxide]
0.73	COc1cc(C(C)C)c2c(c1)S(=O)(=O)N(COc1cc(C)nn1C)C2=O [Example 1, 4-isopropyl-6-methoxy-2-(1,3-dimethylpyrazol-5-yl-oxymethyl)-1,2-benzisothiazol-3(2H)-one 1,1-dioxide]
0.13	COc1cc(C(C)C)c2c(c1)S(=O)(=O)N(COc1cc(C(F)(F)F)nn1-c1cccc(Cl)c1)C2=O [51 (b), 4-isopropyl-6-methoxy-2-[1-(3-chlorophenyl)-3-trifluoromethylpyrazol-5-yl-oxymethyl]-1,2-benzisothiazol-3(2H)-one 1,1-dioxide]
